We go through twelve compounds from patent publication US20250236617A1, “BICYCLIC TETRAHYDROTHIAZEPINE DERIVATIVES” (Hoffmann-La Roche Inc., priority 2022, published 2025).

Molecules are shown by their SMILES.

For experiment [1], the system named is primary human T-cells. Briefly: T-cell proliferation assay (CellTiter-Glo). The experiment is classed as cell-based. Conditions: CD3 condition; for EC50: Homo sapiens, T-cell, 120 h, proliferation after 5 days, CellTiter-Glo, read-out: Tcell Proliferation CD3 EC50; for Emax proliferation (% activation): 5 days, 20 μM reference compound A1 = 100%. As for the experimental part: For coating of plates, PBS++ only or PBS++ with CD3 antibody (concentration depending on donor and determined by CD3 titrations) is added 100 μl/well to Poly-D Lysine coated 96-well plates. Plates are sealed and incubated at room temperature for 3 hours on a table-top rocking platform. After incubation, plates are washed once with PBS−− and filled with 40 μl/well culture medium only. Compounds are then added (see next section) to medium only plates. After 3 hours of culturing the T-cells, cells are filtered through a cell strainer (Miltenyi Biotech, #130-041-407), counted again and concentration is adjusted to 1.25 Mio/ml.
Cells are then seeded 80 μl/well to the 40 μl/well including dispensed compounds according to plate layout. By adding cells, compounds are further diluted 1:3, and resulting in 100 k cells/120 μl/well. After 48 hours 40 μl of supernatant is collected carefully from the top while not disturbing the cells. Cells are assessed for proliferation 5 days later by measuring […] using CellTiterGlo (Promega).
Compounds were added in a 5 or 6 pt dose response with the Tecan D300e Digital Dispenser, all conditions 3 times more concentrated than the end-concentration, since cells are added afterwards (80 μl cells to 40 μl prepared medium with treatment). […] The positive control was the reference compound A1 that was added in a dose response as well, additionally to 3 wells of only 20 μM representing the positive stimulator control. All wells were normalized with DMSO to a final concentration of 0.6% (0.2% end-concentration).
After 5 days, for detection of ATP which is directly proportional to the number of cells present per well, the CellTiter-Glo® 2.0 Reagent is used. After visual control for toxicity or precipitations of the tested compounds, the plates are equilibrated to room temperature for 45 minutes. CellTiter-Glo® 2.0 Reagent is equilibrated to room temperature as well. After equilibration, an equal amount of CellTiter-Glo reagent is added to the cells (80 μl/well) with an electronic multichannel pipette. Plates are placed on a rocking platform for 15 minutes at room temperature. After incubation, the bottom of the plates is sealed with backing tape. Luminescence is measured with PHERAstar FSX (interval time 0.5 sec, gain 3000, focal height 15 mm) and exported as CSV file for analysis in Genedata screener.
Calculations and Data Reporting CD3 and PBS plates were analysed separately in Genedata Screener using Roche Normalization PCT_POS_CTRL with DMSO set as Neutral Control and 20 μM of the reference compound A1 set as Stimulator Control/100%.
For CD3 conditions EC50 and Emax of the fitted sigmoidal curve were reported. If no curve could be fitted, the EC50 was reported as blank field and the Emax was based on individual data points. […] Compounds which activate unstimulated cells (see IL2 measurements) or compounds which negatively affected viability were flagged.
For orientation: In ATP-based viability assays light output follows the ATP content of the culture.

Experiment [2] deals with primary human T-cells. As to the kind of experiment: IL2 secretion measurements in CD3-stimulated T-cells. The experiment is classed as cell-based. Conditions: CD3 condition; for Emax IL2 (% activation): 24 hours, 20 μM reference compound A1 = 100%; for EC50: Homo sapiens, T-cell, IL2 secretion after 24 hours, read-out: Tcell IL2 CD3 EC50. How it is done: As readouts for T-cell activation, 1L2 secretion after 24 hours and proliferation after 5 days was measured. Increases in 1L2 secretion and proliferation upon compound treatment were assessed as the % of the maximum of reference compound A1. WO 2016/139181 discloses reference compound A1 as example 70. As a counter screen and to make sure that no unwanted TCR-independent activation was triggered, PBS conditions were run for all compounds.
Expanded primary human T-cells were thawed and cultured in RPMI 1640 (Gibco, #61870-010)+5% human serum (HS, Sigma, #H3667)+1 mM Sodium Pyruvate (Gibco, #11360-039)+50 μM 2-mercaptoethanol (Gibco, #31350-010) and 1× Pen-Strep (Life Technologies, #15140122) medium at density of 2 Mio/ml for 3 hours in 5% CO2, 37° C. and 95% humidity. For coating of plates, […] or PBS++ with CD3 antibody (concentration depending on donor and determined by CD3 titrations) was added 100 μl/well to Poly-D Lysine coated 96-well plates. Plates were sealed and incubated at room temperature for 3 hours on a table-top rocking platform. After incubation, plates were washed once with PBS−− and filled with 40 μl/well culture medium only. Compounds were then added (see next section) to medium only plates. After 3 hours of culturing the T-cells, cells were filtered through a cell strainer (Miltenyi Biotech, #130-041-407), counted again and concentration was adjusted to 1.25 Mio/ml.
Cells were then seeded 80 μl/well to the 40 μl/well including dispensed compounds according to plate layout. By adding cells, compounds were further diluted 1:3, and resulting in 100 k cells/120 μl/well. After 24 hours 40 μl of supernatant was collected carefully from the top while not disturbing the cells and transferred into a round bottom 96 well plate. Collected and frozen supernatant was used for detection of IL2 using the IL-2 Human ProQuantum Immunoassay Kit (Invitrogen) or using the Human IL-2 ELISA Kit (Thermo Fisher).
Compounds were added in a 5 or 6 pt dose response with the Tecan D300e Digital Dispenser, all conditions 3 times more concentrated than the end-concentration, since cells are added afterwards (80 μl cells to 40 μl prepared medium with treatment). The DR was starting at 20 μM or 10 μM final top concentration and a dilution factor of 3.333. The positive control was the reference compound A1 that was added in a dose response as well, additionally to 3 wells of only 20 μM representing the positive stimulator control. All wells were normalized with DMSO to a final concentration of 0.6% (0.2% end-concentration).
The immunoassay is done following the manufacturer's manual (Invitrogen, #A35603). Additional information: For the immunoassay, MicroAmp™ EnduraPlate™ Optical 384-Well plates are used. Frozen supernatant is thawed and centrifuged for 5 minutes at 1000×g, both steps at 4° C. After centrifugation, required sample amount is taken from the top, and in a separate LightCycler V-bottom plate (working plate) diluted with assay dilution buffer, dilution factor depending on the PBS or CD3 condition but at least 1:3. IL-2 standard and blanks are prepared in the same V-bottom plate, standard with a range of […] (extended version). After preparation, 5 μl of sample dilutions or standard/blanks are transferred to the optical 384-well plate (assay plate) and the 10 μl reaction protocol is being followed. For measurement, the QuantStudio 12K Flex system is used. Raw data is extracted and IL-2 concentrations are calculated with the Thermo Fisher online app (apps.thermofisher.com/apps/proquantum).
ELISA is done following the manufacturer's manual (Thermo Fisher Scientific, #88-7025-88). Additional information: For the ELISA Nunc MaxiSorp 96 well plates are used. Frozen supernatant is thawed and centrifuged for 5 minutes at 1000×g, both steps at 4° C. […]

`CC(C)(C)c1ccnc(-c2cc3c(cc2F)S(=O)(=O)C[C@H](N)C(=O)N3Cc2ccc(Cl)cc2)c1` [Example 1, (3R)-3-amino-7-(4-tert-butyl-2-pyridyl)-5-[(4-chlorophenyl)methyl]-8-fluoro-1,1-dioxo-2,3-dihydro-1λ6,5-benzothiazepin-4-one]: in the experiment with primary human T-cells [1], the EC50 is 1720 nM. In the experiment on primary human T-cells [2], the “Emax IL2 (% activation)” value was 56 % activation and the EC50 worked out at 7380 nM.

On to `CC(C)(C)c1cc(-c2cc3c(cc2F)S(=O)(=O)C[C@H](N)C(=O)N3Cc2ccc(Cl)cc2)ccn1` [Example 3, (3R)-3-amino-7-(2-tert-butyl-4-pyridyl)-5-[(4-chlorophenyl)methyl]-8-fluoro-1,1-dioxo-2,3-dihydro-1λ6,5-benzothiazepin-4-one], for which the EC50 in the experiment with primary human T-cells [1] was 1510 nM. Further, in the experiment with primary human T-cells [2], the “Emax IL2 (% activation)” value is recorded as 56 % activation and the EC50 turned out to be 829 nM.

As for `CC(C)(C)c1cc(-c2cc3c(cc2F)S(=O)(=O)C[C@H](N)C(=O)N3Cc2ccc(Cl)cc2)ncn1` [Example 4, (3R)-3-amino-7-(6-tert-butylpyrimidin-4-yl)-5-[(4-chlorophenyl)methyl]-8-fluoro-1,1-dioxo-2,3-dihydro-1λ6,5-benzothiazepin-4-one], in the experiment on primary human T-cells [1], the EC50 was 408 nM. Further, in the experiment with primary human T-cells [2], the “Emax IL2 (% activation)” value was 81 % activation and the EC50 stood at 2240 nM.

With `COc1cc(-c2cc3c(cc2F)S(=O)(=O)C[C@H](N)C(=O)N3Cc2ccc(Cl)cc2)cnn1` [Example 6, (3R)-3-amino-5-[(4-chlorophenyl)methyl]-8-fluoro-7-(6-methoxypyridazin-4-yl)-1,1-dioxo-2,3-dihydro-1λ6,5-benzothiazepin-4-one], the EC50 in the experiment on primary human T-cells [1] is 1410 nM. In the experiment with primary human T-cells [2], the “Emax IL2 (% activation)” value amounted to 14 % activation and the EC50 is > 10000 nM.

For the compound `CC(C)Oc1cc(-c2cc3c(cc2F)S(=O)(=O)C[C@H](N)C(=O)N3Cc2ccc(Cl)cc2)cnn1` [Example 7, (3R)-3-amino-5-[(4-chlorophenyl)methyl]-8-fluoro-7-(6-isopropoxypyridazin-4-yl)-1,1-dioxo-2,3-dihydro-1λ6,5-benzothiazepin-4-one], in the experiment with primary human T-cells [1], the EC50 came to 172 nM. For the same compound, in the experiment with primary human T-cells [2], the “Emax IL2 (% activation)” value is reported as 49 % activation and the EC50 is 3200 nM.

For `N[C@H]1CS(=O)(=O)c2cc(F)c(-c3cc(C(F)(F)F)ccn3)cc2N(Cc2ccc(Cl)cc2)C1=O` [Example 8, (3R)-3-amino-5-[(4-chlorophenyl)methyl]-8-fluoro-1,1-dioxo-7-[4-(trifluoromethyl)-2-pyridyl]-2,3-dihydro-1λ6,5-benzothiazepin-4-one], in the experiment with primary human T-cells [1], the “Emax proliferation (% activation)” value was 100 % activation and the EC50 amounted to 1310 nM. In the experiment on primary human T-cells [2], the “Emax IL2 (% activation)” value is 37 % activation and the EC50 is > 20000 nM.

Regarding `N[C@H]1CS(=O)(=O)c2cc(F)c(-c3cccc(C(F)(F)F)n3)cc2N(Cc2ccc(Cl)cc2)C1=O` [Example 9, (3R)-3-amino-5-[(4-chlorophenyl)methyl]-8-fluoro-1,1-dioxo-7-[6-(trifluoromethyl)-2-pyridyl]-2,3-dihydro-1λ6,5-benzothiazepin-4-one], in the experiment with primary human T-cells [1], the “Emax proliferation (% activation)” value was determined as 76 % activation and the EC50 was 6690 nM.

Turning to `N[C@H]1CS(=O)(=O)c2cc(F)c(-c3nccc(C(F)(F)F)n3)cc2N(Cc2ccc(Cl)cc2)C1=O` [Example 10, (3R)-3-amino-5-[(4-chlorophenyl)methyl]-8-fluoro-1,1-dioxo-7-[4-(trifluoromethyl)pyrimidin-2-yl]-2,3-dihydro-1λ6,5-benzothiazepin-4-one], in the experiment on primary human T-cells [1], the EC50 came out at 3570 nM. Further, in the experiment on primary human T-cells [2], the “Emax IL2 (% activation)” value was 44 % activation and the EC50 came to 1820 nM.

Consider `CC(C)(C)c1cnc(-c2cc3c(cc2F)S(=O)(=O)C[C@H](N)C(=O)N3Cc2ccc(Cl)cc2)nn1` [Example 12, (3R)-3-amino-7-(6-tert-butyl-1,2,4-triazin-3-yl)-5-[(4-chlorophenyl)methyl]-8-fluoro-1,1-dioxo-2,3-dihydro-1λ6,5-benzothiazepin-4-one], for which the EC50 with primary human T-cells [1] is 1670 nM. Also, in the experiment on primary human T-cells [2], the “Emax IL2 (% activation)” value is given as 77 % activation and the EC50 was 2780 nM.

Turning to `Cc1nnc(-c2cc3c(cc2F)S(=O)(=O)C[C@H](N)C(=O)N3Cc2ccc(Cl)cc2)nc1-c1ccccc1` [Example 13, (3R)-3-amino-5-[(4-chlorophenyl)methyl]-8-fluoro-7-(6-methyl-5-phenyl-1,2,4-triazin-3-yl)-1,1-dioxo-2,3-dihydro-1λ6,5-benzothiazepin-4-one], in the experiment with primary human T-cells [1], the EC50 amounted to 3640 nM. In the experiment with primary human T-cells [2], the “Emax IL2 (% activation)” value came out at 48 % activation and the EC50 was > 10000 nM.

Turning to `CC(C)Oc1ccc(CN2C(=O)[C@@H](N)CS(=O)(=O)c3cc(F)c(-c4nncc(C(C)(C)C)n4)cc32)cc1` [Example 14, (3R)-3-amino-7-(5-tert-butyl-1,2,4-triazin-3-yl)-8-fluoro-5-[(4-isopropoxyphenyl)methyl]-1,1-dioxo-2,3-dihydro-1λ6,5-benzothiazepin-4-one], in the experiment with primary human T-cells [1], the EC50 came out at 254 nM. For the same compound, in the experiment with primary human T-cells [2], the “Emax IL2 (% activation)” value is recorded as 73 % activation and the EC50 was 1630 nM.

On to `N[C@H]1CS(=O)(=O)c2cc(F)c(-c3cnnc(C4(C(F)(F)F)CC4)c3)cc2N(Cc2ccc(-c3noc(C(F)(F)F)n3)cc2)C1=O` [Example 37, (3R)-3-amino-8-fluoro-1,1-dioxo-7-[6-[1-(trifluoromethyl)cyclopropyl]pyridazin-4-yl]-5-[[4-[5-(trifluoromethyl)-1,2,4-oxadiazol-3-yl]phenyl]methyl]-2,3-dihydro-1λ6,5-benzothiazepin-4-one], for which, in the experiment on primary human T-cells [1], the “Emax proliferation (% activation)” value was found to be 147 % activation and the EC50 was found to be 729 nM.
